The values below come from ChEMBL document CHEMBL2021873, “Blocking HIV-1 entry by a gp120 surface binding inhibitor” (Bioorg Med Chem Lett, 2012).

Activity calls are given as the source filed them. The rule behind the calls is not given here. A value given as a limit tells only on which side of the number the result lay.

A word on the IC50: it is the concentration needed to halve the response being measured. One may read the EC50 as the concentration needed to bring the measured effect to its halfway point.

Test [1] has as its system Human immunodeficiency virus 1. In words: Antiviral activity against Human immunodeficiency virus 1 Clade C Du123.6 infected in human TZM-bl cells after 2 days by luciferase reporter gene analysis. In kind it is functional, organism-based. The note with it: Human immunodeficiency virus 1, Clade C Du123.6, TZM-bl, 48 h.
In another test the test system is COS. In words: (§1) Inhibition of Human immunodeficiency virus 1 3B gp120 expressed in african green monkey COS cells assessed as inhibition of […] between gp120 and CD4 expressed on human TZM-bl cells by ELISA. It is filed as cell-based. A general note: An ELISA detects its analyte on a solid surface through an enzyme-linked reagent.
For test [2], the system named is Human immunodeficiency virus 1. The test can be described thus: Antiviral activity against Human immunodeficiency virus 1 Clade B RHPA4259.7 infected in human TZM-bl cells after 2 days by luciferase reporter gene analysis. It is filed as functional, organism-based. The note with it: Human immunodeficiency virus 1, Clade B RHPA4259.7, TZM-bl, 48 h. In general terms: Reporter assays use an easily measured gene product as a stand-in for the process of interest.

The subject of test [3] is Human immunodeficiency virus 1. The test can be described thus: Antiviral activity against Human immunodeficiency virus 1 DH012. It is filed as functional, organism-based.
Test [4] deals with Human immunodeficiency virus 1. The test can be described thus: Antiviral activity against Human immunodeficiency virus 1 YU-2. It is filed as functional. The note with it: isolate YU2.
The subject of test [5] is Human immunodeficiency virus 1. In words: Antiviral activity against Human immunodeficiency virus 1 3B infected in human TZM-bl cells assessed as inhibition of viral replication at 1 uM by luminometric analysis. It is filed as functional, organism-based. The note with it: TDE = time-dependent effect.
In test [6] the test system is Human immunodeficiency virus 1. In words: Antiviral activity against Human immunodeficiency virus 1 Clade B 5768.4 infected in human TZM-bl cells after 2 days by luciferase reporter gene analysis. In kind it is functional, organism-based. Conditions: Human immunodeficiency virus 1, Clade B 5768.4, TZM-bl, 48 h.
The subject of test [7] is Human immunodeficiency virus 1. In words: Antiviral activity against Human immunodeficiency virus 1 Clade C Du151.2 infected in human TZM-bl cells after 2 days by luciferase reporter gene analysis. It is filed as functional, organism-based. The note with it: Human immunodeficiency virus 1, Clade C Du151.2, TZM-bl, 48 h.
In test [8] the test system is Human immunodeficiency virus 1. In words: Antiviral activity against BMS-378806-resistant Human immunodeficiency virus 1 YU-2 T/P. Conditions: Human immunodeficiency virus type 1 (isolate YU2). In kind it is functional.
The test system of test [9] is Human immunodeficiency virus 1. In words: Antiviral activity against BMS-378806-resistant Human immunodeficiency virus 1 DH012 T/P. It is filed as functional, organism-based.
In test [10] the test system is Human immunodeficiency virus 1. In words: Antiviral activity against Human immunodeficiency virus 1 3B infected in human TZM-bl cells assessed as inhibition of viral replication at 0.33 uM by luminometric analysis. It is filed as functional, organism-based. Conditions: TDE = time-dependent effect.
Test [11] concerns Human immunodeficiency virus 1. The test can be described thus: Competitive inhibition of Human immunodeficiency virus 1 3B gp120 glycan loop assessed as blockade of 2G12 antibody binding by ELISA.
In test [12] the test system is Human immunodeficiency virus 1. In words: Antiviral activity against Human immunodeficiency virus 1 Clade C Du422.1 infected in human TZM-bl cells after 2 days by luciferase reporter gene analysis. It is filed as functional, organism-based. The note with it: Human immunodeficiency virus 1, Clade C Du422.1, TZM-bl, 48 h.
The test system of test [13] is Human immunodeficiency virus 1. In words: Antiviral activity against Human immunodeficiency virus 1 Clade B NL4.3 infected in human TZM-bl cells after 2 days by luciferase reporter gene analysis. It is filed as functional, organism-based. The note with it: Human immunodeficiency virus 1, Clade B NL4.3, TZM-bl, 48 h.
Test [14] concerns Human immunodeficiency virus 1. The test can be described thus: Antiviral activity against Human immunodeficiency virus 1 Clade C ZM109F.PB4 infected in human TZM-bl cells after 2 days by luciferase reporter gene analysis. It is filed as functional, organism-based. Conditions: Human immunodeficiency virus 1, Clade C ZM109F.PB4, TZM-bl, 48 h.
Test [15] relates to Human immunodeficiency virus 1. In words: Antiviral activity against Human immunodeficiency virus 1 Clade B REJO4541.67 infected in human TZM-bl cells after 2 days by luciferase reporter gene analysis. The note with it: Human immunodeficiency virus 1, Clade B REJO4541.67, TZM-bl, 48 h. It is filed as functional, organism-based.
Test [16] relates to Human immunodeficiency virus 1. The test can be described thus: Competitive inhibition of Human immunodeficiency virus 1 3B gp120 V3 loop assessed as blockade of 447-52D antibody binding by ELISA.
Test [17] relates to Human immunodeficiency virus 1. The test can be described thus: Competitive inhibition of Human immunodeficiency virus 1 3B gp120 V3 loop assessed as blockade of PK70 antibody binding by ELISA.
The test system of test [18] is Human immunodeficiency virus 1. The test can be described thus: Antiviral activity against Human immunodeficiency virus 1 Clade C ZM197M.PB7 infected in human TZM-bl cells after 2 days by luciferase reporter gene analysis. It is filed as functional, organism-based. Conditions: Human immunodeficiency virus 1, Clade C ZM197M.PB7, TZM-bl, 48 h.
Test [19] has as its system Human immunodeficiency virus 1. The test can be described thus: Antiviral activity against Human immunodeficiency virus 1 Clade B 7165.18 infected in human TZM-bl cells after 2 days by luciferase reporter gene analysis. In kind it is functional, organism-based. Conditions: Human immunodeficiency virus 1, Clade B 7165.18, TZM-bl, 48 h.
Test [20] deals with Human immunodeficiency virus 1. In words: Competitive inhibition of Human immunodeficiency virus 1 3B gp120 V3 loop assessed as blockade of 39F antibody binding by ELISA.
For test [21], the system named is Human immunodeficiency virus 1. In words: Antiviral activity against Human immunodeficiency virus 1 Clade B WITO4160.33 infected in human TZM-bl cells after 2 days by luciferase reporter gene analysis. It is filed as functional, organism-based. The note with it: Human immunodeficiency virus 1, Clade B WITO4160.33, TZM-bl, 48 h.
Test [22] deals with Human immunodeficiency virus 1. The test can be described thus: Antiviral activity against Human immunodeficiency virus 1 Clade B SS1196.1 infected in human TZM-bl cells after 2 days by luciferase reporter gene analysis. In kind it is functional, organism-based. The note with it: Human immunodeficiency virus 1, Clade B SS1196.1, TZM-bl, 48 h.
Test [23] can be described thus: as §1. In kind it is cell-based.

Turning to `CCCCOc1c2cc(C(=O)Nc3cc(C(=O)O)cc(C(=O)O)c3)cc1Cc1cc(C(=O)Nc3cc(C(=O)O)cc(C(=O)O)c3)cc(c1OCCCC)Cc1cc(C(=O)Nc3cc(C(=O)O)cc(C(=O)O)c3)cc(c1OCCCC)Cc1cc(C(=O)Nc3cc(C(=O)O)cc(C(=O)O)c3)cc(c1OCCCC)C2`, the IC50 in test [1] was determined as 1400 nM; in test [2], 3100 nM; in [6], 4100 nM; in [7], 3100 nM; in [12] it was 1800 nM; in test [13], 650 nM. Further, the IC50 in test [14] stood at 3900 nM; in [15] it was 1900 nM; in test [18] it was 2700 nM; in test [19], 4500 nM; in [21] it was 1800 nM; in [22] it was 2800 nM. Also, the inhibition result (with COS; in test [16]) was “Dose-dependent effect” each time. The result in [3], in [4], in [8] and in test [9] was Active. Further, the Activity result in test [5] and in [10] was “tde” in each case. Further, the inhibition entry in test [11] was “inactive”. The inhibition result in test [17] and in test [20] was “Active” throughout.

`CCCCOc1c2cc(C(=O)Nc3cc(C(=O)O)cc(C(=O)OCc4ccccc4)c3)cc1Cc1cc(C(=O)Nc3cc(C(=O)O)cc(C(=O)OCc4ccccc4)c3)cc(c1OCCCC)Cc1cc(C(=O)Nc3cc(C(=O)O)cc(C(=O)OCc4ccccc4)c3)cc(c1OCCCC)Cc1cc(C(=O)Nc3cc(C(=O)O)cc(C(=O)OCc4ccccc4)c3)cc(c1OCCCC)C2`: the EC50 in test [23] is more than 70000 nM. Besides, the inhibition result in test [16] is “inactive”.
